Results as given in patent publication US9328138B2 (priority 2011, dated 2016).

What was measured:
[1] = biological target: HCV NS3 protease genotype 3a (3A-1) (Hepatitis C virus genotype 3a, UniProt Q81258); assay: HCV NS3 protease time-resolved fluorescence (TRF) assay, genotype 3a; type: biochemical; settings: Ki 3a
Method in brief: (§1)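 Inhibitor titrations are mixed with NS3/NS4A in pH 7.5 HEPES buffer containing 10 mM DTT and 15% glycerol for 10 min before substrate (25 nM final) is added. After 6 h at room temperature, delayed fluorescence is read and fitted to a four-parameter curve for IC50.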

[2] = biological target: T1, HCV genotype 1b (BK) NS3 modified enzyme with a R155K mutation (Hepatitis C virus genotype 1b, UniProt P26663, R1181K); assay: HCV NS3 protease time-resolved fluorescence (TRF) assay, genotype 1b R155K; type: biochemical; settings: Ki 1b R155K
T1 construct: HCV genotype 1b (BK) NS3 modified enzyme
Method in brief: as §1

[3] = genotype 1b (BK) NS3 R155K, single value
[4] = first of two values printed in the cell (not explained)
[5] = second of two values printed in the cell (not explained)

| Structure (SMILES) | Ki [1] | Ki [2, 3] | Ki [2, 4] | Ki [2, 5] |
| --- | --- | --- | --- | --- |
| C=C[C@@H]1C[C@]1(NC(=O)[C@@H]1C[C@@H]2CN1C(=O)[C@H](C(C)(C)C)NC(=O)O[C@@H]1CCC[C@H]1CCCCCc1c(nc3ccccc3c1OCCN1CCOCC1)O2)C(=O)NS(=O)(=O)N1CCC1 [Example 107, (3aR,7S,10S,12R,24aR)-N-{(1R,2S)-1-[(azetidin-1-ylsulfonyl)carbamoyl]-2-ethenylcyclopropyl}-7-tert-butyl-19-[2-(morpholin-4-yl)ethoxy]-5,8-dioxo-1,2,3,3a,5,6,7,8,11,12,20,21,22,23,24,24a-hexadecahydro-10H-9,12-methanycyclopenta [18,19][1,10,3,6]dioxadiazacyclo nonadecino[11,12-b]quinoline-10-carboxamide] | 23 nM | 0.74 nM | – | – |
| C=C[C@@H]1C[C@]1(NC(=O)[C@@H]1C[C@@H]2CN1C(=O)[C@H](C1CCCC1)NC(=O)O[C@@H]1CCC[C@H]1CC/C=C/Cc1c(nc3ccccc3c1OCC)O2)C(=O)NS(=O)(=O)C1CC1 [Example 1, (3aR,7S,10S,12R,21E,24aS)-7-cyclopentyl-N-{(1R,2S)-1-[(cyclopropylsulfonyl)carbamoyl]-2-ethenylcyclopropyl}-19-ethoxy-5,8-dioxo-1,2,3,3a,5,6,7,8,11,12,20,23,24,24a-tetradecahydro-10H-9,12-methanocyclopenta[18,19][1,10,3,6]dioxadiazacyclononadecino[11,12-b]quinoline-10-carboxamide] | 6.1 nM | 0.25 nM | – | – |
| C=C[C@@H]1C[C@]1(NC(=O)[C@@H]1C[C@@H]2CN1C(=O)[C@H](C(C)(C)C)NC(=O)O[C@@H]1C[C@H]1CCCCCc1c(nc3ccccc3c1OCCN1CCS(=O)(=O)CC1)O2)C(=O)NS(=O)(=O)C1(C)CC1 [Example 176, (1aR,5S,8S,10R,22aR)-5-tert-butyl-17-[2-(1,1-dioxidothiomorpholin-4-yl)ethoxy]-N-[(1R,2S)-2-ethenyl-1-{[(1-methylcyclopropyl)sulfonyl]carbamoyl}cyclopropyl]-3,6-dioxo-1,1a,3,4,5,6,9,10,18,19,20,21,22,22a-tetradecachydro-8H-7,10-methanocyclopropa[18,19][1,10,3,6] dioxadiazacyclononadecino[11,12-b] quinoline-8-carboxamide] | 1.3 nM | 0.1 nM | – | – |
| C=C[C@@H]1C[C@]1(NC(=O)[C@@H]1C[C@@H]2CN1C(=O)[C@H](C(C)(C)C)NC(=O)O[C@@H]1C[C@H]1CCCCCc1c(nc3ccccc3c1OCCCN1CC3(COC3)C1)O2)C(=O)NS(=O)(=O)C1(C)CC1 [Example 194] | 0.38 nM | 0.032 nM | – | – |
| C=C[C@@H]1C[C@]1(NC(=O)[C@@H]1C[C@@H]2CN1C(=O)[C@H](C(C)(C)C)NC(=O)O[C@@H]1C[C@H]1CCCCCc1c(nc3ccccc3c1OCCCN1CC(F)(F)C1)O2)C(=O)NS(=O)(=O)C1(C)CC1 [Example 206, (1aR,5S,8S,10R,22aR)-5-tert-butyl-17-[3-(3,3-difluoroazetidin-1-yl)propoxy]-N-[(1R,2S)-2-ethenyl-1-{[(1-methylcyclopropyl)sulfonyl]carbamoyl}cyclopropyl]-3,6-dioxo-1,1a,3,4,5,7,9,10,18,19,20,21,22,22a-tetradecahydro-8H-7,10-methanocyclopropa[18,19][1,10,3,6] dioxadiazacyclononadecino[11,12-b] quinoline-8-carboxamide] | 2.6 nM | 0.2 nM | – | – |
| C=C[C@@H]1C[C@]1(NC(=O)[C@@H]1C[C@@H]2CN1C(=O)[C@H](C(C)(C)C)NC(=O)O[C@@H]1C[C@H]1CCCCCc1c(nc3ccccc3c1OCCN1CCOCC1)O2)C(=O)NS(=O)(=O)C1(C)CC1 [Example 113, (1aR,5S,8S,10R,22aR)-5-tert-butyl-N-[(1R,2S)-2-ethenyl-1-{[(1-methylcyclopropyl)sulfonyl]carbamoyl}cyclopropyl]-17-[2-(morpholin-4-yl)ethoxy]-3,6-dioxo-1,1a,3,4,5,6,9,10,18,19,20,21,22,22a-tetradecahydro-8H-7,10-methanocyclopropa[18,19][1,10,3,6]dioxadiazacyclononadecino[11,12-b]quinoline-8-carboxamide] | 1.6 nM | 0.09 nM | – | – |
| C=C[C@@H]1C[C@]1(NC(=O)[C@@H]1C[C@@H]2CN1C(=O)[C@H](C1CCCCC1)NC(=O)O[C@@H]1C[C@H]1CCCCCc1c(nc3ccccc3c1OC1CC3COCC(C1)N3CCOC)O2)C(=O)NS(=O)(=O)C1(C)CC1 (stereo partly drawn) [Example 289, (1aR,5S,8S,10R,22aR)-5-cyclohexyl-N-[(1R,2S)-2-ethenyl-1-{[(1-methylcyclopropyl)sulfonyl]carbamoyl}cyclopropyl]-17-{[9-(2-methoxyethyl)-3-oxa-9-azabicyclo[3.3.1]non-7-yl]oxy}-3,6-dioxo-1,1a,3,4,5,6,9,10,18,19,20,21,22,22a-tetradecahydro-8H-7,10-methanocyclopropa[18,19][1,10,3,6]dioxadiazacyclononadecino[11,12-b]quinoline-8-carboxamide] | 3.27 nM | – | 0.03 nM | 0.197 nM |
| C=CC1C[C@]1(NC(=O)[C@@H]1C[C@@H]2CN1C(=O)[C@H](C1CCCC1)NC(=O)O[C@@H]1CCC[C@H]1CC/C=C/Cc1c(nc3ccccc3c1OCCCN(C)C)O2)C(=O)NS(=O)(=O)C1CC1 (stereo partly drawn) [Example 77, (3aR,7S,10S,12R,21E,24aS)-7-cyclo pentyl-N-{(1R,2S)-1-[(cyclopropylsulfonyl)carbamoyl]-2-ethenylcyclopropyl}-19-[3-(dimethylamino)propoxy]-5,8-dioxo-1,2,3,3a,5,6,7,8,11,12,20,23,24, 24a-tetradecahydro-10H-9,12-methano cyclopenta[18,19][1,10,3,6] dioxadiazacyclo-nonadecino[11,12-b]quinoline-10-carboxamide] | 0.72 nM | 0.09 nM | – | – |
| C=C[C@@H]1C[C@]1(NC(=O)[C@@H]1C[C@@H]2CN1C(=O)[C@H](C(C)(C)C)NC(=O)O[C@]1(C)C[C@H]1CCCCCc1c(nc3ccccc3c1OCCN1CCOCC1)O2)C(=O)NS(=O)(=O)C1CC1 [Example 100, (1aR,5S,8S,10R,22aR)-5-tert-butyl-N-{(1R,2S)-1-[(cyclopropylsulfonyl)carbamoyl]-2-ethenylcyclopropyl}-1a-methyl-17-[2-(morpholin-4-yl)ethoxy]-3,6-dioxo-1,1a,3,4,5,6,9, 10,18,19,20,21,22,22a-tetradecahydro-8H-7,10-methanocyclopropa[18,19] [1,10,3,6]dioxadiazacyclonona decino[11,12-b]quinoline-8-carboxamide] | 2 nM | 0.24 nM | – | – |
| C=C[C@@H]1C[C@]1(NC(=O)[C@@H]1C[C@@H]2CN1C(=O)[C@H](C1CCCCC1)NC(=O)O[C@@H]1C[C@H]1CCCCCc1c(nc3ccccc3c1OCCCN1CCN(C(=O)OC(C)(C)C)CC1)O2)C(=O)NS(=O)(=O)C1(C)CC1 [Example 264, tert-butyl 4-(3-{[(1aR,5S,8S,10R,22aR)-5-cyclohexyl-8-{[(1R,2S)-2-ethenyl-1-{[(1-methylcyclopropyl)sulfonyl]carbamoyl}cyclopropyl]carbamoyl}-3,6-dioxo-1,1a,3,4,5,6,9,10,18,19,20,21,22,22a-tetradecahydro-8H-7,10-methanocyclopropa[18,19][1,10,3,6]dioxadiazacyclononadecino[11,12-b]quinolin-17-yl]oxy}propyl)piperazine-1-carboxylate] | 7.7 nM | – | 0.037 nM | 1.4 nM |
| C=C[C@@H]1C[C@]1(NC(=O)[C@@H]1C[C@@H]2CN1C(=O)[C@H](C1CCCC1)NC(=O)O[C@@H]1CCC[C@H]1CC/C=C/Cc1c(nc3ccccc3c1OCCCN1CCCC(C)(C)C1)O2)C(=O)NS(=O)(=O)C1CC1 [Example 92, (3aR,7S,10S,12R,21E,24aS)-7-cyclo pentyl-N-{(1R,2S)-1-[(cyclopropylsulfonyl)carbamoyl]-2-ethenylcyclopropyl}-19-[3-(3,3-dimethylpiperidin-1-yl)propoxy]-5,8-dioxo-1,2,3,3a,5,6,7,8,11,12,20,23,24,24a-tetradeca hydro-10H-9,12-methano-cyclopenta[18,19][1,10,3,6]dioxa diazacyclononadecino[11,12-b] quinoline-10-carboxamide] | 19 nM | 1.6 nM | – | – |
| C=C[C@@H]1C[C@]1(NC(=O)[C@@H]1C[C@@H]2CN1C(=O)[C@H](C(C)(C)C)NC(=O)O[C@@H]1C[C@H]1CCCCCc1c(nc3cc(C(C)C)ccc3c1OCCCNC(C)C)O2)C(=O)NS(=O)(=O)C1(C)CC1 [Example 160, (1aR,5S,8S,10R,22aR)-5-tert-butyl-N-[(1R,2S)-2-ethenyl-1-{[(1-methylcyclopropyl)sulfonyl]carbamoyl}cyclopropyl]-3,6-dioxo-14-(propan-2-yl)-17-[3-(propan-2-ylamino)propoxy]-1,1a,3,4,5,6,9, 10,18,19,20,21,22,22a-tetradeca hydro-8H-7,10-methanocyclopropa[18,19] [1,10,3,6]dioxadiazacyclononadecino [11,12-b]quinoline-8-carboxamide] | 0.44 nM | 0.053 nM | – | – |
| C=C[C@@H]1C[C@]1(NC(=O)[C@@H]1C[C@@H]2CN1C(=O)[C@H](C(C)(C)C)NC(=O)O[C@@H]1C[C@H]1CCCCCc1c(nc3ccccc3c1OC1C3COCC1CN(C(=O)OC(C)(C)C)C3)O2)C(=O)NS(=O)(=O)C1(C)CC1 (single isomer, unassigned) [Example 255] | 59.1 nM | – | 0.12 nM | 2.21 nM |
